From US20120309790A1, “TREATMENT OF DERM[…] CONDITIONS” (SANOFI, priority 2010, published 2012)
Several values for one entry are separate records, joined by “and”; a condition that tells them apart may be missing. Identical values can stand only once. Counter-ions that a name gives are not always drawn.

Test system: Ascaris suum antigen-induced wheal
Assay: Ascaris suum antigen-induced intradermal wheal formation in nonhuman primates
Type: in vivo, Macaca fascicularis
Settings: for Mean wheal area: mean of 12 animals, 15 minutes, A suum alone 119.626; for Individual calculated wheal area: single animals, intradermal, 15 minutes after injection
From the text: The species used for this study were male, nonhuman primates, Macaca fascicularis 5 to 10 years of age. Each animal was identified by a unique number tattoo located on its chest. The group size was 12. Animals were supplied by Charles River and housed under conditions outlined in the NIH Guide for Care and Use of Laboratory Animals in compliance with the USDA Laboratory Animal Welfare Act, in a fully accredited AAALAC facility. Purina (product 5038) primate chow was fed twice daily, supplemented with fruit, vegetables and treats. Water was available ad libitum.
Compound A formulated in a solution containing 0.22 mg/ml A sum (Ascaris sum) in phosphate buffered saline was dosed at 0.004, 0.0004, 0.00004, and 0.000004 mg per injection site at a volume of 40 μl.
Diphenhydramine hydrochloride was formulated in a solution containing 0.22 mg/ml A suum in phosphate buffered saline. Diphenhydramine hydrochloride was dosed at 0.4 mg per injection site at a volume of 40 μl.
Ascaris suum extract (part number XPB33X1A5, lot 30575) was supplied by Greer Laboratories. The extract was reconstituted with distilled water to a final concentration of 10 mg/ml of stock solution.
Animals were anesthetized by an intramuscular (IM) injection of 5 to 10 mg/kg ketamine mixed with 0.5 to 0.75 mg/kg medetomidine. The animal's chest and abdomen were shaved and wiped clean with alcohol. The following injections (40 μl each) were given intradermally: • PBS (phosphate buffered saline) • Ascaris 8.8×10^−3 mg/ml • Ascaris 8.8×10^−3 mg/ml+0.4 mg Diphenhydramine hydrochloride • Ascaris 8.8×10^−3 mg/ml+0.004 mg SAR160719 • Ascaris 8.8×10^−3 mg/ml+0.0004 mg SAR160719 • Ascaris 8.8×10^−3 mg/ml+0.00004 mg SAR160719 • Ascaris 8.8×10^−3 mg/ml+0.000004 mg SAR160719
The reactions in the form of a wheal were measured 15 minutes after injection using vernier calipers. The wheal was measured along two diameters (D1 and D2) perpendicular to one another. The area of the wheal was calculated using the formula: […]
Mixed model with repeated measures was used to analyze the data, with wheal size for different treatment groups as the repeated measures, treatment as fixed effects, and animal as random effect. The correlation structure was selected to be compound symmetry. Robust covariance estimate was used to obtain the results.

| Compound | Antigen-induced wheal formation (co-injected with A suum intradermally, measured 15 minutes after injection) | Mean wheal area (A suum + 0.000004 mg per site) [mm^2] | Mean wheal area (A suum + 0.00004 mg per site) [mm^2] | Mean wheal area (A suum + 0.0004 mg per site) | Mean wheal area (A suum + 0.004 mg per site) | Individual calculated wheal area (A suum 8.8 × 10^−3 mg + 0.000004 mg per injection site) | Individual calculated wheal area (A suum 8.8 × 10^−3 mg + 0.00004 mg per injection site) | Individual calculated wheal area (A suum 8.8 × 10^−3 mg + 0.0004 mg per injection site) | Individual calculated wheal area (A suum 8.8 × 10^−3 mg + 0.004 mg per injection site) | Mean wheal area (A suum + 0.4 mg per site, hydrochloride) | Individual calculated wheal area (A suum 8.8 × 10^−3 mg + 0.4 mg per injection site, hydrochloride) |
| --- | --- | --- | --- | --- | --- | --- | --- | --- | --- | --- | --- |
| COCCn1cc(C(=O)N2CCC(c3cc(CN)ccc3F)CC2)c2c(OC(F)(F)F)ccc(F)c21 [Compound A, [4-(5-Aminomethyl-2-fluorophenyl)piperidine-1-yl][7-fluoro-1-(2-methoxyethyl)-4-trifluoromethoxy-1H-indol-3-yl]methanone] | reduced antigen-induced wheal formation | 105.510 | 101.157 | 97.680±8.012 mm^2 and 97.680 mm^2 | 102.390±9.645 mm^2 and 102.390 mm^2 | 110.302 mm^2 and 84.145 mm^2 and 132.750 mm^2 and 121.754 mm^2 and 86.601 mm^2 and 104.788 mm^2 and 134.800 mm^2 and 133.773 mm^2 and 85.779 mm^2 and 66.485 mm^2 and 115.005 mm^2 and 89.932 mm^2 | 67.209 mm^2 and 86.601 mm^2 and 168.586 mm^2 and 90.774 mm^2 (2×) and 106.610 mm^2 (2×) and 81.723 mm^2 and 107.527 mm^2 and 93.325 mm^2 and 79.337 mm^2 and 134.800 mm^2 | 112.171 mm^2 and 110.302 mm^2 and 158.388 mm^2 and 101.190 mm^2 and 103.882 mm^2 and 107.527 mm^2 and 87.428 mm^2 and 90.774 mm^2 and 100.300 mm^2 and 48.404 mm^2 and 56.752 mm^2 and 95.046 mm^2 | 67.938 mm^2 and 115.005 mm^2 and 159.506 mm^2 and 91.621 mm^2 and 84.960 mm^2 (2×) and 131.730 mm^2 and 88.259 mm^2 and 164.014 mm^2 and 99.415 mm^2 and 65.047 mm^2 and 76.211 mm^2 | – | – |
| CN(C)CCOC(c1ccccc1)c1ccccc1 [Diphenhydramine hydrochloride, reference compound] | – | – | – | – | – | – | – | – | – | 84.196±7.364 mm^2 and 84.196 mm^2 | 76.211 mm^2 and 116.914 mm^2 and 147.430 mm^2 and 62.219 mm^2 and 73.148 mm^2 and 82.527 mm^2 and 58.773 mm^2 and 67.209 mm^2 and 78.550 mm^2 and 65.764 mm^2 and 87.428 mm^2 and 94.183 mm^2 |
